Laboratory results from patent US6849598B1, “Therapeutic compositions comprising bactericidal/permeability-increasing (BPI) protein products” (XOMA, priority 1995, dated 2005).
Values after ≈ are worked out from the molar mass of the structure shown. Read-outs that look alike come from different tables or passages of the source.

Columns and labels:
S. pneumoniae = experiment: Antibiotic susceptibility (MIC, Sensititre Trays) with rBPI21 poloxamer formulations; assay type: cell-based; conditions: for MIC: Streptococcus pneumoniae, read-out: Minimum Inhibitory Concentration
Procedure: The effect of therapeutic compositions of rBPI21 formulated with poloxamer, with or without EDTA, was evaluated on the antibiotic susceptibility of the multiple drug resistant A. baumannii, S. pneumoniae, E. faecium and P. aeruginosa organisms of Example 5. Therapeutic compositions were prepared containing 2 mg/mL rBPI21, (5 mM sodium citrate, 150 mM NaCl) with a 0.2% (w/v) concentration of PLURONIC F68, P103, P104, P105 or P123. The effect on the antibiotic susceptibility of the organisms was determined in Mueller-Hinton Broth plus Cations (CSMHB, Remel), or 40% pooled human serum in CSMHB (Sigma, St. Louis, Mo.), as follows.
Isolated colonies of the organism from overnight cultures were suspended in Microscan® Inoculum Water to a concentration equivalent to a 0.5 McFarland Standard (approximately 1×10^8 CFU/ml), determined using a Microscan® turbidimeter. Aliquots were transferred to either CSMHB or 40% pooled human serum in CSMHB. Each tube contained either a final concentration of 16 μg/mL rBPI21 or an equivalent volume of control buffer. Minimal inhibitory concentrations (MIC) for each antibiotic tested, i.e. the lowest concentration of antibiotic which inhibits visible growth, were determined using gram-negative (MB and MC) and gram-positive (MA) Sensititre Trays (Radiometer America, Westlake, Ohio), which allow for the rapid and simultaneous survey of a broad spectrum of standard antibiotics. Any other antimicrobial panel systems known in the art, such as the Microscan® (Dade Microscan, Sacramento, Calif.), Pasco (DIFCO, Detroit, Mich.) and Alamar (Alamar, Sacramento, Calif.) systems, may alternatively be used to assay for antibiotic susceptibility.
Tables 12-15 below display a summary of the results of the antibiotic screening panels, reported for each strain tested as the MIC of the tested antibiotics in the presence of the indicated rBPI21 therapeutic composition. The antibiotic susceptibility standards (interpretation of an MIC as clinically resistant (R), intermediate (I) or susceptible (S) according to NCCLS standards) applicable to the organism tested appear in superscript next to the MIC.

gram-negative bacteria = conditions: broad range of gram-negative bacteria; Elsbach and Weiss (1992); cited from earlier work
[1] = system: gram-positive organisms (Staphylococcus aureus, Staphylococcus epideimidis, Streptococcus faecalis, Bacillus subtilis, Micrococcus Iysodeikticus, Listeria …); conditions: BPI at 10^−6 M or 160 μg/ml; pH of either 7.0 or 5.5; cited from earlier work
[2] = system: Candida albicans and Candida parapsilosis; conditions: BPI at 10^−6 M; pH 7.0 or 5.5; cited from earlier work
[3] = system: human, rabbit and sheep red blood cells and several human tumor cell lines; conditions: BPI at 10^−6 M; cited from earlier work
[4] = CSMHB, 16 μg/mL rBPI21 with F68
[5] = CSMHB, 16 μg/mL rBPI21 with P103
[6] = CSMHB, 16 μg/mL rBPI21 with P104
[7] = CSMHB, 16 μg/mL rBPI21 with P105
[8] = CSMHB, 16 μg/mL rBPI21 with P123
[9] = Serum, 16 μg/mL rBPI21 with F68
[10] = Serum, 16 μg/mL rBPI21 with P103
[11] = Serum, 16 μg/mL rBPI21 with P104
[12] = Serum, 16 μg/mL rBPI21 with P105
[13] = Serum, 16 μg/mL rBPI21 with P123

For `Cc1onc(-c2ccccc2)c1C(=O)N[C@@H]1C(=O)N2[C@@H]1SC(C)(C)[C@@H]2C(=O)O` [Oxacillin], the “susceptibility interpretation of MIC (superscript)” value (shortened to “susceptibility interpretation”) (S. pneumoniae; [4]) was “R”, the “susceptibility interpretation” value (S. pneumoniae; [5]) was “S” and the “susceptibility interpretation” value (S. pneumoniae; [6]) was “S”. The “susceptibility interpretation” value (S. pneumoniae; [7]) was “S”, the “susceptibility interpretation” value (S. pneumoniae; [8]) was “S” and the “susceptibility interpretation” value (S. pneumoniae; CSMHB, Control (no BPI)) was “R”. The “susceptibility interpretation” value (S. pneumoniae; [9]) was “R”, the “susceptibility interpretation” value (S. pneumoniae; [10]) was “R” and the “susceptibility interpretation” value (S. pneumoniae; [11]) was “R”. For the same molecule, the “susceptibility interpretation” value (S. pneumoniae; [12]) was “R”, the “susceptibility interpretation” value (S. pneumoniae; [13]) was “R” and the “susceptibility interpretation” value (S. pneumoniae; Serum, Control (no BPI)) was “R”. The MIC (S. pneumoniae; [4]) was 32 µg/mL (≈ 79.7 µM), the MIC (S. pneumoniae; [5]) was under 0.25 µg/mL and the MIC (S. pneumoniae; [6]) was 0.5 µg/mL (≈ 1.25 µM). For the same molecule, the MIC (S. pneumoniae; [7]) was 1 µg/mL (≈ 2.49 µM), the MIC (S. pneumoniae; [8]) was 0.5 µg/mL (≈ 1.25 µM) and the MIC (S. pneumoniae; CSMHB, Control (no BPI)) was 32 µg/mL (≈ 79.7 µM). The MIC (S. pneumoniae; [9]) was over 32 µg/mL, the MIC (S. pneumoniae; [10]) was 32 µg/mL (≈ 79.7 µM) and the MIC (S. pneumoniae; [11]) was 32 µg/mL (≈ 79.7 µM). It also gave an MIC (S. pneumoniae; [12]) of 32 µg/mL (≈ 79.7 µM), an MIC (S. pneumoniae; [13]) of 32 µg/mL (≈ 79.7 µM) and an MIC (S. pneumoniae; Serum, Control (no BPI)) of 32 µg/mL (≈ 79.7 µM).

B1: BPI: bactericidal/permeability-increasing protein isolated from granules of mammalian polymorphonuclear leukocytes (protein, UniProt P17213 32-487, looked up)
Bactericidal …: VNPGVVVRISQKGLDYASQQGTAALQKELKRIKIPDYSDSFKIKHLGKGHYSFYSMDIREFQLPSSQISMVPNVGLKFSISNANIKISGKWKAQKRFLKMSGNFDLSIEGMSISADLKLGSNPTSGKPTITCSSCSSHINSVHVHISKSKVGWLIQLFHKKIESALRNKMNSQVCEKVTNSVSSELQPYFQTLPVMTKIDSVAGINYGLVAPPATTAETLDVQMKGEFYSENHHNPPPFAPPVMEFPAAHDRMVYLGLSDYFFNTAGLVYQEAGVLKMTLRDDMIPKESKFRLTTKFFGTFLPEVAKKFPNMKIQIHVSASTPPHLSVQPTGLTFYPAVDVQAFAVLPNSSLASLFLIGMHTTGSMEVSAESNRLVGELKLDRLLLELKHSNIGPFPVELLQDIMNYIVPILVLPRVNEKLQKGFPLPTPARVQLYNVVLQPHQNFLLFGADVVYK
In the case of B1, the “concentrations at which BPI exhibits anti-bacterial activity (as low as)” value (gram-negative bacteria) is given as 10^−8 to 10^−9 M, the “toxic effect on gram-positive organisms” value [1] is given as “no toxic effect” and the “toxic effect on fungi” value [2] is given as “no toxic effect”. The “toxicity to higher eukaryotic cells” value [3] was “non-toxic”.
